Data: US8426589B2, “Process for production of quinazoline derivative” (Shionogi & Co., Ltd., priority 2008, dated 2013)

Assay: Stability test of the crystalline form (sealed glass vial, HPLC)
Type: physicochemical
Description: The crystalline form of the compound (IV) monohydrate was sealed in a glass vial and allowed it to stand for 20 days to determine the quality change before and after the test. Under heating at 50° C. (for 21 hr) or 80° C. (for 9 hr) were also conducted.
The quality degradation was not seen for the crystalline form of the compound (IV) monohydrate after 20 days and neither at 50° C. nor 80° C.
HPLC condition: Column Unison UK-C18 3 μm;
Mobile phase: 0.1% trifuluoroacetic acid aq. in acetnitrile;
Column temperature: 30° C.
Detector: UV spectrophotometer (254 nm)

CC#CC(=O)c1ccc2ncnc(Nc3ccc(OCc4cccc(F)c4)c(Cl)c3)c2c1 [compound (IV) monohydrate, 4-(3-chloro-4-(3-fluorobenzyloxy)phenylamino)-6-(1-oxo-2-butyn-1-yl)quinazoline]
remaining ratio (HPLC, peak at Retention Time 10.2 min) (ca. 50° C., 15 h): 99.2
remaining ratio (HPLC, peak at Retention Time 10.2 min) (ca. 50° C., 21 h): 99.1
remaining ratio (HPLC, peak at Retention Time 10.2 min) (ca. 50° C., Control (before the test)): 99.4
remaining ratio (HPLC, peak at Retention Time 10.2 min) (ca. 80° C., 3 h): 99.1
remaining ratio (HPLC, peak at Retention Time 10.2 min) (ca. 80° C., 9 h): 99.1
remaining ratio (HPLC, peak at Retention Time 10.2 min) (ca. 80° C., Control (before the test)): 99.1
quality degradation (heating at 50° C. (for 21 hr)): not seen
quality degradation (heating at 80° C. (for 9 hr)): not seen
remaining ratio (HPLC, peak at Retention Time 10.2 min) (rt (ca. 22° C.), sealed in a glass vial, 20 days): 99.3
remaining ratio (HPLC, peak at Retention Time 10.2 min) (rt (ca. 22° C.), sealed in a glass vial, Control (before the test)): 99.1
quality degradation (sealed in a glass vial, after 20 days): not seen
